Laboratory results published in PubChem BioAssay (NCI).
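The compound was tested at five concentrations on cells cultured in 96-well plates, with a 48-hour exposure period. TGI: concentration producing complete growth inhibition.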

How the values were obtained:
Assay in all cases: DTP human tumour cell line panel, 48 h
786-0 renal = system: 786-0 renal
A498 renal = system: A498 renal
A549 NSCLC = system: A549 NSCLC
ACHN renal = system: ACHN renal
BT-549 breast = system: BT-549 breast
CAKI-1 renal = system: CAKI-1 renal
CCRF-CEM leukemia = system: CCRF-CEM leukemia
COLO 205 colon = system: COLO 205 colon
DU-145 prostate = system: DU-145 prostate
EKVX NSCLC = system: EKVX NSCLC
HCC-2998 colon = system: HCC-2998 colon
HCT-116 colon = system: HCT-116 colon
HCT-15 colon = system: HCT-15 colon
HL-60(TB) leukemia = system: HL-60(TB) leukemia
HOP-62 NSCLC = system: HOP-62 NSCLC
HOP-92 NSCLC = system: HOP-92 NSCLC
HS 578T breast = system: HS 578T breast
HT29 colon = system: HT29 colon
IGROV1 ovarian = system: IGROV1 ovarian
K-562 leukemia = system: K-562 leukemia
KM12 colon = system: KM12 colon
LOX IMVI melanoma = system: LOX IMVI melanoma
M14 melanoma = system: M14 melanoma
MALME-3M melanoma = system: MALME-3M melanoma
MCF7 breast = system: MCF7 breast
MDA-MB-231 breast = system: MDA-MB-231 breast
MDA-MB-435 = system: MDA-MB-435
MDA-N = system: MDA-N
MOLT-4 leukemia = system: MOLT-4 leukemia
NCI-H226 lung = system: NCI-H226 lung
NCI-H23 lung = system: NCI-H23 lung
NCI-H460 lung = system: NCI-H460 lung
NCI-H522 lung = system: NCI-H522 lung
NCI/ADR-RES ovarian = system: NCI/ADR-RES ovarian
OVCAR-3 ovarian = system: OVCAR-3 ovarian
OVCAR-4 ovarian = system: OVCAR-4 ovarian
OVCAR-5 ovarian = system: OVCAR-5 ovarian
OVCAR-8 ovarian = system: OVCAR-8 ovarian
PC-3 prostate = system: PC-3 prostate
RPMI-8226 leukemia = system: RPMI-8226 leukemia
RXF 393 renal = system: RXF 393 renal
SF-268 CNS = system: SF-268 CNS
SF-295 CNS = system: SF-295 CNS
SF-539 CNS = system: SF-539 CNS
SK-MEL-2 melanoma = system: SK-MEL-2 melanoma
SK-MEL-28 melanoma = system: SK-MEL-28 melanoma
SK-MEL-5 melanoma = system: SK-MEL-5 melanoma
SK-OV-3 ovarian = system: SK-OV-3 ovarian
SN12C renal = system: SN12C renal
SNB-19 CNS = system: SNB-19 CNS
SNB-75 CNS = system: SNB-75 CNS
SR leukemia = system: SR leukemia
SW-620 colon = system: SW-620 colon
T-47D breast = system: T-47D breast
TK-10 renal = system: TK-10 renal
UACC-257 melanoma = system: UACC-257 melanoma
UACC-62 melanoma = system: UACC-62 melanoma
UO-31 renal = system: UO-31 renal

Cc1ccc([N+](=O)[O-])cc1S(=O)(=O)Nc1ccc(C(=O)/C=C/c2cccs2)cc1
TGI (786-0 renal): 37.4 µM
TGI (A498 renal): 45.1 µM
TGI (A549 NSCLC): > 100 µM
TGI (ACHN renal): 87.6 µM
TGI (BT-549 breast): 40.1 µM
TGI (CAKI-1 renal): 38.8 µM
TGI (CCRF-CEM leukemia): > 100 µM
TGI (COLO 205 colon): 95.9 µM
TGI (DU-145 prostate): 54.2 µM
TGI (EKVX NSCLC): 51.7 µM
TGI (HCC-2998 colon): 34.6 µM
TGI (HCT-116 colon): 35.8 µM
TGI (HCT-15 colon): 64.3 µM
TGI (HL-60(TB) leukemia): 62.9 µM
TGI (HOP-62 NSCLC): 48 µM
TGI (HOP-92 NSCLC): > 100 µM
TGI (HS 578T breast): > 100 µM
TGI (HT29 colon): 41.6 µM
TGI (IGROV1 ovarian): > 100 µM
TGI (K-562 leukemia): > 100 µM
TGI (KM12 colon): 32.5 µM
TGI (LOX IMVI melanoma): 45.2 µM
TGI (M14 melanoma): 45.3 µM
TGI (MALME-3M melanoma): > 100 µM
TGI (MCF7 breast): 39.2 µM
TGI (MDA-MB-231 breast): 31.1 µM
TGI (MDA-MB-435): 32.7 µM
TGI (MDA-N): 73 µM
TGI (MOLT-4 leukemia): 64.1 µM
TGI (NCI-H226 lung): 71.5 µM
TGI (NCI-H23 lung): 46.1 µM
TGI (NCI-H460 lung): > 100 µM
TGI (NCI-H522 lung): 50.8 µM
TGI (NCI/ADR-RES ovarian): 59.3 µM
TGI (OVCAR-3 ovarian): 39.2 µM
TGI (OVCAR-4 ovarian): 54.3 µM
TGI (OVCAR-5 ovarian): > 100 µM
TGI (OVCAR-8 ovarian): > 100 µM
TGI (PC-3 prostate): 43.8 µM
TGI (RPMI-8226 leukemia): > 100 µM
TGI (RXF 393 renal): 32.9 µM
TGI (SF-268 CNS): > 100 µM
TGI (SF-295 CNS): > 100 µM
TGI (SF-539 CNS): > 100 µM
TGI (SK-MEL-2 melanoma): 41.8 µM
TGI (SK-MEL-28 melanoma): 58.7 µM
TGI (SK-MEL-5 melanoma): 33.1 µM
TGI (SK-OV-3 ovarian): > 100 µM
TGI (SN12C renal): 74.8 µM
TGI (SNB-19 CNS): 55.9 µM
TGI (SNB-75 CNS): 36.9 µM
TGI (SR leukemia): 68.9 µM
TGI (SW-620 colon): 50.1 µM
TGI (T-47D breast): 91.7 µM
TGI (TK-10 renal): > 100 µM
TGI (UACC-257 melanoma): 46.6 µM
TGI (UACC-62 melanoma): 32.1 µM
TGI (UO-31 renal): 40.4 µM
